Reference: ChEMBL document CHEMBL3132761, “Construction of phenoxazine rings containing nitro and sulfonic acid groups leading to phenoxazine-3-sulfonamide derivatives: their evaluation as novel and potential insulin secretagogues” (Medchemcomm, 2014)
Active and inactive are the calls of the source. The rule behind the calls is not given here.

Legend:
Rattus norvegicus [1] = test: Hypoglycemic activity in 18 hrs fasted Wistar albino rat assessed as reduction of blood glucose level at 10 mg/kg, po after 6 hrs (reference value: 101.01 +/- 1.60 mg/dl); type: functional
Rattus norvegicus [2] = test: Hypoglycemic activity in 18 hrs fasted Wistar albino rat assessed as reduction of blood glucose level at 10 mg/kg, po after 4 hrs (reference value: 97.13 +/- 2.89 mg/dl); type: functional
Rattus norvegicus [3] = test: Hypoglycemic activity in 18 hrs fasted Wistar albino rat assessed as reduction of blood glucose level at 10 mg/kg, po after 2 hrs (reference value: 101.03 +/- 1.93 mg/dl); type: functional
Rattus norvegicus [4] = test: Hypolipidemic activity in Wistar albino rat assessed as reduction of total cholesterol level at 10 mg/kg, po administered for 14 days measured on day 14 after 1 to 8 hrs relative to control; type: functional
Rattus norvegicus [5] = test: Hypoglycemic activity in over night fasted Wistar albino rat assessed as reduction of blood glucose level at 10 mg/kg, po administered 30 mins before glucose challenge measured after 120 mins by intraperitoneal glucose tolerance test (reference value: 101.07 +/- 8.98 mg/dl); type: functional
Rattus norvegicus [6] = test: Antidiabetic activity in Wistar albino rat assessed as reversal of diabetic-induced SGOT level in liver at 10 mg/kg, po administered for 14 days measured on day 14 relative to control; type: functional
Rattus norvegicus [7] = test: Antidiabetic activity in streptozotocin-nicotinamide-induced diabetic model of Wistar albino rat assessed as reduction of blood glucose level at 10 mg/kg, po after 6 hrs relative to control; type: functional
Rattus norvegicus [8] = test: Antidiabetic activity in Wistar albino rat assessed as reversal of diabetic-induced SGPT level in liver at 10 mg/kg, po administered for 14 days measured on day 14 relative to control; type: functional
Hepatocyte [9] = test: Cytotoxicity against rat primary hepatocytes after 16 hrs; type: cell-based
Rattus norvegicus [10] = test: Hypolipidemic activity in Wistar albino rat assessed as reduction of serum triglyceride level at 10 mg/kg, po administered for 14 days measured on day 14 after 1 to 8 hrs relative to control; type: functional
Rattus norvegicus [11] = test: Antidiabetic activity in Wistar albino rat assessed as reversal of diabetic-induced muscle wasting by measuring increase in body weight at 10 mg/kg, po administered for 14 days measured on day 14 relative to control; type: functional
Rattus norvegicus [12] = test: Hypoglycemic activity in over night fasted Wistar albino rat assessed as reduction of blood glucose level at 10 mg/kg, po administered 30 mins before glucose challenge measured after 90 mins by intraperitoneal glucose tolerance test (reference value: 94.44 +/- 6.99 mg/dl); type: functional
Rattus norvegicus [13] = test: Antidiabetic activity in streptozotocin-nicotinamide-induced diabetic model of Wistar albino rat assessed as reduction of blood glucose level at 10 mg/kg, po administered for 14 days measured on day 7 after 1 to 8 hrs relative to control; type: functional
Rattus norvegicus [14] = test: Hypoglycemic activity in over night fasted Wistar albino rat assessed as reduction of blood glucose level at 10 mg/kg, po administered 30 mins before glucose challenge measured after 60 mins by intraperitoneal glucose tolerance test (reference value: 106.07 +/- 13.98 mg/dl); type: functional
Rattus norvegicus [15] = test: Antidiabetic activity in streptozotocin-nicotinamide-induced diabetic model of Wistar albino rat assessed as reduction of blood glucose level at 10 mg/kg, po after 8 hrs relative to control; type: functional
[16] = molecular target: T1, Peroxisome proliferator-activated receptor gamma (Homo sapiens) (UniProt P37231); test: Agonist activity at human GAL4-fused PPARgamma LBD expressed in HEK293T cells co-expressing DBD at 1 uM by luciferase based transactivation assay relative to control; type: cell-based; conditions: HEK-293T
T1 sequence (whole entry): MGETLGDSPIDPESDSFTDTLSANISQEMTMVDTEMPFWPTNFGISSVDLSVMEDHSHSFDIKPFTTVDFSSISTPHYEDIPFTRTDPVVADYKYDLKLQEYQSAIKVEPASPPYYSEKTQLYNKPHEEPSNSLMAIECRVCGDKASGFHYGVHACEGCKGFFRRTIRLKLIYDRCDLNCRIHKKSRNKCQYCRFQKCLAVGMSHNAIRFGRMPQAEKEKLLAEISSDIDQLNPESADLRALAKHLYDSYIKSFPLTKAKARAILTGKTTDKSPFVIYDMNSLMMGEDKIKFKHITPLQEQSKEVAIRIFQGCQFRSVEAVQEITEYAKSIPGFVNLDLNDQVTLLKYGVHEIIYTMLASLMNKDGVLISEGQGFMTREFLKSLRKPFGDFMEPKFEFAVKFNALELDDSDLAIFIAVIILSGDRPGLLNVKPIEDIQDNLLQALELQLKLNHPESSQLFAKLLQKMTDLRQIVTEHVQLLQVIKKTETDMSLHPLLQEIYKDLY

Rattus norvegicus [17] = test: Hypoglycemic activity in over night fasted Wistar albino rat assessed as reduction of blood glucose level at 10 mg/kg, po administered 30 mins before glucose challenge measured after 30 mins by intraperitoneal glucose tolerance test (reference value: 109.28 +/- 20.53 mg/dl); type: functional
Rattus norvegicus [18] = test: Antidiabetic activity in streptozotocin-nicotinamide-induced diabetic model of Wistar albino rat assessed as reduction of blood glucose level at 10 mg/kg, po after 4 hrs relative to control; type: functional
Rattus norvegicus [19] = test: Antidiabetic activity in streptozotocin-nicotinamide-induced diabetic model of Wistar albino rat assessed as reduction of blood glucose level at 10 mg/kg, po administered for 14 days measured on day 14 after 1 to 8 hrs relative to control; type: functional
Rattus norvegicus [20] = test: Antidiabetic activity in streptozotocin-nicotinamide-induced diabetic model of Wistar albino rat assessed as reduction of blood glucose level at 10 mg/kg, po after 1 hr relative to control; type: functional
Hepatocyte [21] = test: Cytotoxicity against rat primary hepatocytes after 6 hrs; type: cell-based
Rattus norvegicus [22] = test: Antidiabetic activity in streptozotocin-nicotinamide-induced diabetic model of Wistar albino rat assessed as reduction of blood glucose level at 10 mg/kg, po after 2 hrs relative to control; type: functional
Rattus norvegicus [23] = test: Antidiabetic activity in streptozotocin-nicotinamide-induced diabetic model of Wistar albino rat assessed as granulated pancreatic islets with prominent hyperplasticity at 10 mg/kg, po administered for 14 days measured on day 14 relative to control; type: functional, organism-based; parameters: dose 10 mg/kg

Row | SMILES | Activity (Rattus norvegicus [1]) | Activity (Rattus norvegicus [2]) | Activity (Rattus norvegicus [3]) | Activity (Rattus norvegicus [5]) | Activity (Rattus norvegicus [12]) | Activity (Rattus norvegicus [14]) | Activity (Rattus norvegicus [17]) | other results
1 | O=[N+]([O-])c1cc(S(=O)(=O)N2CCCCC2)cc2c1Nc1ccccc1O2 | 78.41 mg/dL | 69.35 mg/dL | 72.67 mg/dL |  |  |  |  | 
2 | O=[N+]([O-])c1cc(S(=O)(=O)Nc2ccc(O)cc2)cc2c1Nc1ccccc1O2 | 66.14 mg/dL | 44.65 mg/dL | 46.34 mg/dL | 98.91 mg/dL | 78.1 mg/dL | 95.4 mg/dL | 102.43 mg/dL | Activity (Rattus norvegicus [4]): 59.2 mg/dL; Activity (Rattus norvegicus [6]): 47.2 U/dl; Activity (Rattus norvegicus [7]): 143.3 mg/dL; Activity (Rattus norvegicus [8]): 44.8 U/dl; IC50 (Hepatocyte [9]): 274 µM; Activity (Rattus norvegicus [10]): 63.2 mg/dL; Activity (Rattus norvegicus [11]): 242 g; Activity (Rattus norvegicus [13]): 165.8 mg/dL; Activity (Rattus norvegicus [15]): 161.4 mg/dL; fold change (FC) [16]: 15.5; Activity (Rattus norvegicus [18]): 131.4 mg/dL; Activity (Rattus norvegicus [19]): 145.6 mg/dL; Activity (Rattus norvegicus [20]): 158.6 mg/dL; IC50 (Hepatocyte [21]): 343 µM; Activity (Rattus norvegicus [22]): 116.4 mg/dL; Activity (Rattus norvegicus [23]): Active
3 | CN(CCOc1ccc(CC2SC(=O)NC2=O)cc1)c1ccccn1 (stereo not drawn) [ROSIGLITAZONE] |  |  |  |  |  |  |  | IC50 (Hepatocyte [9]): 165 µM; IC50 (Hepatocyte [21]): 225 µM
4 | O=[N+]([O-])c1cc(S(=O)(=O)NCc2ccco2)cc2c1Nc1ccccc1O2 | 100.76 mg/dL | 86.36 mg/dL | 96.21 mg/dL | 83.89 mg/dL | 80 mg/dL | 81.89 mg/dL | 115.43 mg/dL | 
5 | COc1ccc(NS(=O)(=O)c2cc3c(c([N+](=O)[O-])c2)Nc2ccccc2O3)cc1 | 74.47 mg/dL | 120.31 mg/dL | 116.66 mg/dL | 107.14 mg/dL | 91.42 mg/dL | 96.07 mg/dL | 130.35 mg/dL | 
6 | Cc1ccc(NS(=O)(=O)c2cc3c(c([N+](=O)[O-])c2)Nc2ccccc2O3)c(C)c1 | 85.42 mg/dL | 89.88 mg/dL | 93.55 mg/dL |  |  |  |  | 
7 | Cc1ccccc1NS(=O)(=O)c1cc2c(c([N+](=O)[O-])c1)Nc1ccccc1O2 | 87.93 mg/dL | 73.33 mg/dL | 52.43 mg/dL | 100 mg/dL | 97.32 mg/dL | 100.44 mg/dL | 123.21 mg/dL | 
8 | O=[N+]([O-])c1cc(S(=O)(=O)N2CCOCC2)cc2c1Nc1ccccc1O2 | 65.27 mg/dL | 61.56 mg/dL | 59.35 mg/dL |  |  |  |  | 
9 | O=[N+]([O-])c1cc(S(=O)(=O)Nc2cccc(F)c2)cc2c1Nc1ccccc1O2 | 93.94 mg/dL | 87.88 mg/dL | 95.45 mg/dL |  |  |  |  | 
10 | CC(C)c1ccc(NS(=O)(=O)c2cc3c(c([N+](=O)[O-])c2)Nc2ccccc2O3)cc1 | 91.74 mg/dL | 86.45 mg/dL | 74.28 mg/dL | 106 mg/dL | 98 mg/dL | 96.66 mg/dL | 124.33 mg/dL | 
11 | O=[N+]([O-])c1cc(S(=O)(=O)NC2CCCCC2)cc2c1Nc1ccccc1O2 | 90.2 mg/dL | 85.63 mg/dL | 90.22 mg/dL |  |  |  |  | 
12 | COc1ccc(CNS(=O)(=O)c2cc3c(c([N+](=O)[O-])c2)Nc2ccccc2O3)cc1 | 85.93 mg/dL | 102.08 mg/dL | 102.6 mg/dL |  |  |  |  | 
13 | CCN(CC)S(=O)(=O)c1cc2c(c([N+](=O)[O-])c1)Nc1ccccc1O2 | 118.75 mg/dL | 113.54 mg/dL | 122.92 mg/dL |  |  |  |  | 
14 | NS(=O)(=O)c1cc2c(c([N+](=O)[O-])c1)Nc1ccccc1O2 | 51.04 mg/dL | 69.79 mg/dL | 65.62 mg/dL | 122.85 mg/dL | 105.72 mg/dL | 112.31 mg/dL | 124.2 mg/dL | 
15 | CC(NS(=O)(=O)c1cc2c(c([N+](=O)[O-])c1)Nc1ccccc1O2)c1ccccc1 (stereo not drawn) | 94.28 mg/dL | 77.74 mg/dL | 78.26 mg/dL |  |  |  |  | 
16 | CCCNS(=O)(=O)c1cc2c(c([N+](=O)[O-])c1)Nc1ccccc1O2 | 98.7 mg/dL | 88.7 mg/dL | 75.48 mg/dL |  |  |  |  | 
17 | O=[N+]([O-])c1cc(S(=O)(=O)Nc2ccc(Br)cc2)cc2c1Nc1ccccc1O2 | 89.58 mg/dL | 85.42 mg/dL | 95.31 mg/dL | 119.64 mg/dL | 137.5 mg/dL | 111.4 mg/dL | 148.35 mg/dL | Activity (Rattus norvegicus [7]): 165.6 mg/dL; Activity (Rattus norvegicus [15]): 172.2 mg/dL; Activity (Rattus norvegicus [18]): 157.5 mg/dL; Activity (Rattus norvegicus [20]): 165.8 mg/dL; Activity (Rattus norvegicus [22]): 145.6 mg/dL
18 | CC(C)N(C(C)C)S(=O)(=O)c1cc2c(c([N+](=O)[O-])c1)Nc1ccccc1O2 | 69.44 mg/dL | 63.05 mg/dL | 67.5 mg/dL |  |  |  |  | 
19 | O=[N+]([O-])c1cc(S(=O)(=O)Nc2ccc(Cl)cc2)cc2c1Nc1ccccc1O2 | 60.93 mg/dL | 91.66 mg/dL | 106.25 mg/dL | 76.9 mg/dL | 93.77 mg/dL | 106.23 mg/dL | 100.36 mg/dL | 
20 | O=[N+]([O-])c1cc(S(=O)(=O)Nc2ccccc2)cc2c1Nc1ccccc1O2 | 118.22 mg/dL | 100 mg/dL | 102.6 mg/dL |  |  |  |  | 
21 | COc1ccc(Cl)cc1C(=O)NCCc1ccc(S(=O)(=O)NC(=O)NC2CCCCC2)cc1 [GLYBURIDE] | 69.01 mg/dL | 63.73 mg/dL | 90.2 mg/dL | 91.78 mg/dL | 77.5 mg/dL | 89 mg/dL | 107.85 mg/dL | Activity (Rattus norvegicus [4]): 57.8 mg/dL; Activity (Rattus norvegicus [6]): 45.8 U/dl; Activity (Rattus norvegicus [7]): 127.2 mg/dL; Activity (Rattus norvegicus [8]): 42 U/dl; Activity (Rattus norvegicus [10]): 61 mg/dL; Activity (Rattus norvegicus [11]): 244 g; Activity (Rattus norvegicus [13]): 93.3 mg/dL; Activity (Rattus norvegicus [15]): 151.9 mg/dL; Activity (Rattus norvegicus [18]): 107.5 mg/dL; Activity (Rattus norvegicus [19]): 88.3 mg/dL; Activity (Rattus norvegicus [20]): 147.2 mg/dL; Activity (Rattus norvegicus [22]): 101.9 mg/dL; Activity (Rattus norvegicus [23]): Active
22 | O=[N+]([O-])c1cc(S(=O)(=O)NCc2cccs2)cc2c1Nc1ccccc1O2 | 84.37 mg/dL | 114.06 mg/dL | 86.45 mg/dL |  |  |  |  | 
23 | O=[N+]([O-])c1cc(S(=O)(=O)Nc2ccccc2O)cc2c1Nc1ccccc1O2 | 88.88 mg/dL | 85 mg/dL | 71.38 mg/dL |  |  |  |  | 
